Laboratory results as given in patent publication US8679514B2, “Fungicidal mixtures based on azolopyrimidinylamines” (BASF SE, priority 2005, dated 2014).

How the values were obtained:
Pyricularia oryzae = test: microbe, parasite or virus in culture; assay type: cell-based; settings: Pyricularia oryzae, read-out: Observed activity (%)
Septoria tritici = test: Activity against the speckled leaf blotch pathogen Septoria tritici in the microtiter test; assay type: cell-based; settings: single active compound
Phytophthora infestans [1] = test: whole plant or invertebrate; assay type: in vivo; settings: 144 h, read-out: Efficacy in % of the untreated control
Botrytis cinerea = test: Activity against the gray mold pathogen Botrytis cinerea in the microtiter test; assay type: cell-based; settings: Botrytis cinerea, single active compound, read-out: Observed activity (%)
Phytophthora infestans [2] = test: microbe, parasite or virus in culture; assay type: cell-based; settings: Phytophthora infestans, read-out: Observed activity (%)

Which results are given for `CCCCCCCCc1c(CC)nc2nc(N)nn2c1N` [Compound I-120, 5-ethyl-6-octyl-[1,2,4]triazolo[1,5-a]pyrimidine-2,7-diamine]?
inhibition at 16 µg/mL (Pyricularia oryzae): 25%; inhibition at […] (Septoria tritici; Zymoseptoria tritici, 0.063 mg/l, read-out: Observed activity (%)): 0%; pest or weed control at 16 ppm (Phytophthora infestans [1]): 33%; inhibition at […] (Botrytis cinerea; Conc. 0.063 mg/l): 0%; inhibition at 1 µg/mL (Botrytis cinerea; Conc. 1 mg/l): 9%; inhibition at 16 µg/mL (Botrytis cinerea; Conc. 16 mg/l): 15%; inhibition at 0.016 µg/mL (Phytophthora infestans [2]): 0%; inhibition at 0.25 µg/mL (Phytophthora infestans [2]): 6%; inhibition at […] (Phytophthora infestans [2]): 2%

Which “Observed activity (%)” value (Septoria tritici; 0.25 mg/l) does the source give for `CCC(=O)C1=C([O-])CC(C(=O)[O-])CC1=O.[Ca+2]` (stereo not shown) [prohexadione-Ca, reference compound] here?
Its value is 5%.
